The values below come from ChEMBL document CHEMBL1697781, “Assessment of the health effects of chemicals in humans: II. Construction of an adverse effects database for QSAR modeling” (Curr Drug Discov Technol, 2004).

A value given as a limit tells only on which side of the number the result lay.
Throughout, for GGT Increase - Index Value: reference of the scale not given here.
Throughout, for LDH Increase - Index Value: reference of the scale not given here.

The subject of the first data set is Hepatotoxicity. Kind of data set: FDA HLAED, liver enzyme composite activity. The following applies: human.
For the compound `CCOC(=O)/C=C(C)/C=C/C=C(C)/C=C/c1c(C)cc(OC)c(C)c1C` [ETRETINATE], the “Composite Activity - Active” value stood at 2, the “Composite Activity - Marginal” value is listed as 1 and the “Composite Activity - Score” value was “Active”.

For the compound `CC(=O)OCC(CCn1cnc2cnc(N)nc21)COC(C)=O` [FAMCICLOVIR], the “Composite Activity - Active” value was 0, the “Composite Activity - Marginal” value is recorded as 0 and the “Composite Activity - Score” value was “Inactive”.

Take `NC(=O)OCC(COC(N)=O)c1ccccc1` [FELBAMATE]: the “Composite Activity - Active” value is reported as 5, the “Composite Activity - Marginal” value came to 0 and the “Composite Activity - Score” value is given as “Active”.

`CCOC(=O)C1=C(C)NC(C)=C(C(=O)OC)C1c1cccc(Cl)c1Cl` (stereo unspecified) [FELODIPINE]: the “Composite Activity - Active” value is reported as 0, the “Composite Activity - Marginal” value was 0 and the “Composite Activity - Score” value is “Inactive”.

As for `CC(C)(C)NC(=O)[C@H]1CC[C@H]2[C@@H]3CC[C@H]4NC(=O)C=C[C@]4(C)[C@H]3CC[C@]12C` [FINASTERIDE], the “Composite Activity - Active” value is given as 0, the “Composite Activity - Marginal” value is given as 0 and the “Composite Activity - Score” value was “Inactive”.

The same data set, now with this note: human, Liver.
Turning to `NC(N)=Nc1nc(CSCCC(N)=NS(N)(=O)=O)cs1` [FAMOTIDINE], the “Composite Activity - Active” value amounted to 0, the “Composite Activity - Marginal” value is listed as 0 and the “Composite Activity - Score” value is on record as “Inactive”.

With `CC(C)(C(=O)O)c1ccc(C(O)CCCN2CCC(C(O)(c3ccccc3)c3ccccc3)CC2)cc1` (stereo unspecified) [FEXOFENADINE], the “Composite Activity - Active” value came to 0, the “Composite Activity - Marginal” value came to 0 and the “Composite Activity - Score” value is given as “Inactive”.

A further data set relates to Hepatotoxicity. Description: FDA HLAED, alkaline phosphatase increase. The following applies: human.
For `CCOC(=O)/C=C(C)/C=C/C=C(C)/C=C/c1c(C)cc(OC)c(C)c1C` [ETRETINATE], the “Alkaline Phosphatase Increase - Activity Score” value was “Active”, the “Alkaline Phosphatase Increase - Index Value” was found to be 5.3 and the “Alkaline Phosphatase Increase - Number of Reports” value is “>= 4”.

Turning to `CC(=O)OCC(CCn1cnc2cnc(N)nc21)COC(C)=O` [FAMCICLOVIR], the “Alkaline Phosphatase Increase - Activity Score” value is “Inactive”, the “Alkaline Phosphatase Increase - Index Value” came to 0 and the “Alkaline Phosphatase Increase - Number of Reports” value was < 4.

Take `NC(N)=Nc1nc(CSCCC(N)=NS(N)(=O)=O)cs1` [FAMOTIDINE]: the “Alkaline Phosphatase Increase - Activity Score” value was “Inactive”, the “Alkaline Phosphatase Increase - Index Value” turned out to be 0.8 and the “Alkaline Phosphatase Increase - Number of Reports” value is reported as “>= 4”.

Turning to `NC(=O)OCC(COC(N)=O)c1ccccc1` [FELBAMATE], the “Alkaline Phosphatase Increase - Activity Score” value was “Active”, the “Alkaline Phosphatase Increase - Index Value” is reported as 15 and the “Alkaline Phosphatase Increase - Number of Reports” value is listed as “>= 4”.

Turning to `CCOC(=O)C1=C(C)NC(C)=C(C(=O)OC)C1c1cccc(Cl)c1Cl` (stereo unspecified) [FELODIPINE], the “Alkaline Phosphatase Increase - Activity Score” value was “Inactive”, the “Alkaline Phosphatase Increase - Index Value” is listed as 0.6 and the “Alkaline Phosphatase Increase - Number of Reports” value is < 4.

On to `CC(C)(C(=O)O)c1ccc(C(O)CCCN2CCC(C(O)(c3ccccc3)c3ccccc3)CC2)cc1` (stereo unspecified) [FEXOFENADINE], for which the “Alkaline Phosphatase Increase - Activity Score” value is listed as “Inactive”, the “Alkaline Phosphatase Increase - Index Value” was found to be 0 and the “Alkaline Phosphatase Increase - Number of Reports” value is < 4.

Take `CC(C)(C)NC(=O)[C@H]1CC[C@H]2[C@@H]3CC[C@H]4NC(=O)C=C[C@]4(C)[C@H]3CC[C@]12C` [FINASTERIDE]: the “Alkaline Phosphatase Increase - Activity Score” value is given as “Inactive”, the “Alkaline Phosphatase Increase - Index Value” is reported as 2.5 and the “Alkaline Phosphatase Increase - Number of Reports” value is on record as “>= 4”.

The subject of another data set is Hepatotoxicity. Kind of data set: FDA HLAED, serum glutamic oxaloacetic transaminase (SGOT) increase. The settings on record: human.
Consider `CCOC(=O)/C=C(C)/C=C/C=C(C)/C=C/c1c(C)cc(OC)c(C)c1C` [ETRETINATE], for which the “SGOT Increase - Activity Score” value is reported as “Active”, the “SGOT Increase - Index Value” was determined as 5.3 and the “SGOT Increase - Number of Reports” value is “>= 4”.

In the case of `CC(=O)OCC(CCn1cnc2cnc(N)nc21)COC(C)=O` [FAMCICLOVIR], the “SGOT Increase - Activity Score” value is listed as “Inactive”, the “SGOT Increase - Index Value” stood at 0 and the “SGOT Increase - Number of Reports” value was < 4.

Consider `NC(N)=Nc1nc(CSCCC(N)=NS(N)(=O)=O)cs1` [FAMOTIDINE], for which the “SGOT Increase - Activity Score” value was “Inactive”, the “SGOT Increase - Index Value” is listed as 0.8 and the “SGOT Increase - Number of Reports” value is on record as “>= 4”.

Turning to `NC(=O)OCC(COC(N)=O)c1ccccc1` [FELBAMATE], the “SGOT Increase - Activity Score” value is on record as “Active”, the “SGOT Increase - Index Value” is 11.7 and the “SGOT Increase - Number of Reports” value is recorded as “>= 4”.

In the case of `CCOC(=O)C1=C(C)NC(C)=C(C(=O)OC)C1c1cccc(Cl)c1Cl` (stereo unspecified) [FELODIPINE], the “SGOT Increase - Activity Score” value is listed as “Inactive”, the “SGOT Increase - Index Value” worked out at 0.3 and the “SGOT Increase - Number of Reports” value is < 4.

Regarding `CC(C)(C(=O)O)c1ccc(C(O)CCCN2CCC(C(O)(c3ccccc3)c3ccccc3)CC2)cc1` (stereo unspecified) [FEXOFENADINE], the “SGOT Increase - Activity Score” value is given as “Inactive”, the “SGOT Increase - Index Value” is reported as 0 and the “SGOT Increase - Number of Reports” value is given as < 4.

On to `CC(C)(C)NC(=O)[C@H]1CC[C@H]2[C@@H]3CC[C@H]4NC(=O)C=C[C@]4(C)[C@H]3CC[C@]12C` [FINASTERIDE], for which the “SGOT Increase - Activity Score” value is given as “Inactive”, the “SGOT Increase - Index Value” is recorded as 2.7 and the “SGOT Increase - Number of Reports” value is “>= 4”.

The subject of another data set is Hepatotoxicity. Kind of data set: FDA HLAED, serum glutamic pyruvic transaminase (SGPT) increase. The following applies: human.
Turning to `CCOC(=O)/C=C(C)/C=C/C=C(C)/C=C/c1c(C)cc(OC)c(C)c1C` [ETRETINATE], the “SGPT Increase - Activity Score” value is given as “Marginally Active”, the “SGPT Increase - Index Value” came out at 3.2 and the “SGPT Increase - Number of Reports” value was “>= 4”.

With `CC(=O)OCC(CCn1cnc2cnc(N)nc21)COC(C)=O` [FAMCICLOVIR], the “SGPT Increase - Activity Score” value was “Inactive”, the “SGPT Increase - Index Value” came to 0 and the “SGPT Increase - Number of Reports” value is < 4.

`NC(N)=Nc1nc(CSCCC(N)=NS(N)(=O)=O)cs1` [FAMOTIDINE]: the “SGPT Increase - Activity Score” value was “Inactive”, the “SGPT Increase - Index Value” is reported as 0.7 and the “SGPT Increase - Number of Reports” value is listed as “>= 4”.

As for `NC(=O)OCC(COC(N)=O)c1ccccc1` [FELBAMATE], the “SGPT Increase - Activity Score” value is on record as “Active”, the “SGPT Increase - Index Value” is given as 11.7 and the “SGPT Increase - Number of Reports” value is “>= 4”.

`CCOC(=O)C1=C(C)NC(C)=C(C(=O)OC)C1c1cccc(Cl)c1Cl` (stereo unspecified) [FELODIPINE]: the “SGPT Increase - Activity Score” value was “Inactive”, the “SGPT Increase - Index Value” came out at 0.3 and the “SGPT Increase - Number of Reports” value is recorded as < 4.

With `CC(C)(C(=O)O)c1ccc(C(O)CCCN2CCC(C(O)(c3ccccc3)c3ccccc3)CC2)cc1` (stereo unspecified) [FEXOFENADINE], the “SGPT Increase - Activity Score” value was “Inactive”, the “SGPT Increase - Index Value” is reported as 0 and the “SGPT Increase - Number of Reports” value was < 4.

For the compound `CC(C)(C)NC(=O)[C@H]1CC[C@H]2[C@@H]3CC[C@H]4NC(=O)C=C[C@]4(C)[C@H]3CC[C@]12C` [FINASTERIDE], the “SGPT Increase - Activity Score” value is on record as “Inactive”, the “SGPT Increase - Index Value” came to 2.7 and the “SGPT Increase - Number of Reports” value is given as “>= 4”.

The test system of the next data set is Hepatotoxicity. Description: FDA HLAED, lactate dehydrogenase (LDH) increase. The following applies: human.
As for `CCOC(=O)/C=C(C)/C=C/C=C(C)/C=C/c1c(C)cc(OC)c(C)c1C` [ETRETINATE], the “LDH Increase - Activity Score” value is on record as “Inactive”, the “LDH Increase - Index Value” is recorded as 2.9 and the “LDH Increase - Number of Reports” value is “>= 4”.

With `CC(=O)OCC(CCn1cnc2cnc(N)nc21)COC(C)=O` [FAMCICLOVIR], the “LDH Increase - Activity Score” value is “Inactive”, the “LDH Increase - Index Value” was found to be 0 and the “LDH Increase - Number of Reports” value is listed as < 4.

As for `NC(N)=Nc1nc(CSCCC(N)=NS(N)(=O)=O)cs1` [FAMOTIDINE], the “LDH Increase - Activity Score” value was “Inactive”, the “LDH Increase - Index Value” was 0.4 and the “LDH Increase - Number of Reports” value is listed as “>= 4”.

As for `NC(=O)OCC(COC(N)=O)c1ccccc1` [FELBAMATE], the “LDH Increase - Activity Score” value is “Active”, the “LDH Increase - Index Value” was 8.3 and the “LDH Increase - Number of Reports” value is reported as “>= 4”.

In the case of `CCOC(=O)C1=C(C)NC(C)=C(C(=O)OC)C1c1cccc(Cl)c1Cl` (stereo unspecified) [FELODIPINE], the “LDH Increase - Activity Score” value is recorded as “Inactive”, the “LDH Increase - Index Value” amounted to 0.3 and the “LDH Increase - Number of Reports” value is < 4.

Consider `CC(C)(C(=O)O)c1ccc(C(O)CCCN2CCC(C(O)(c3ccccc3)c3ccccc3)CC2)cc1` (stereo unspecified) [FEXOFENADINE], for which the “LDH Increase - Activity Score” value is “Inactive”, the “LDH Increase - Index Value” was found to be 0 and the “LDH Increase - Number of Reports” value was < 4.

In the case of `CC(C)(C)NC(=O)[C@H]1CC[C@H]2[C@@H]3CC[C@H]4NC(=O)C=C[C@]4(C)[C@H]3CC[C@]12C` [FINASTERIDE], the “LDH Increase - Activity Score” value is on record as “Inactive”, the “LDH Increase - Index Value” worked out at 1.1 and the “LDH Increase - Number of Reports” value was “>= 4”.

For the next data set, the system named is Hepatotoxicity. Description: FDA HLAED, gamma-glutamyl transferase (GGT) increase. The following applies: human.
For the compound `CCOC(=O)/C=C(C)/C=C/C=C(C)/C=C/c1c(C)cc(OC)c(C)c1C` [ETRETINATE], the “GGT Increase - Activity Score” value is “Inactive”, the “GGT Increase - Index Value” is given as 0.6 and the “GGT Increase - Number of Reports” value is < 4.

As for `CC(=O)OCC(CCn1cnc2cnc(N)nc21)COC(C)=O` [FAMCICLOVIR], the “GGT Increase - Activity Score” value is listed as “Inactive”, the “GGT Increase - Index Value” worked out at 0 and the “GGT Increase - Number of Reports” value was < 4.

Consider `NC(N)=Nc1nc(CSCCC(N)=NS(N)(=O)=O)cs1` [FAMOTIDINE], for which the “GGT Increase - Activity Score” value is “Inactive”, the “GGT Increase - Index Value” turned out to be 0.4 and the “GGT Increase - Number of Reports” value is given as “>= 4”.

With `NC(=O)OCC(COC(N)=O)c1ccccc1` [FELBAMATE], the “GGT Increase - Activity Score” value is on record as “Active”, the “GGT Increase - Index Value” worked out at 15.8 and the “GGT Increase - Number of Reports” value was “>= 4”.

With `CCOC(=O)C1=C(C)NC(C)=C(C(=O)OC)C1c1cccc(Cl)c1Cl` (stereo unspecified) [FELODIPINE], the “GGT Increase - Activity Score” value was “Inactive”, the “GGT Increase - Index Value” came to 0.3 and the “GGT Increase - Number of Reports” value was < 4.

On to `CC(C)(C(=O)O)c1ccc(C(O)CCCN2CCC(C(O)(c3ccccc3)c3ccccc3)CC2)cc1` (stereo unspecified) [FEXOFENADINE], for which the “GGT Increase - Activity Score” value is “Inactive”, the “GGT Increase - Index Value” was 0 and the “GGT Increase - Number of Reports” value is reported as < 4.

In the case of `CC(C)(C)NC(=O)[C@H]1CC[C@H]2[C@@H]3CC[C@H]4NC(=O)C=C[C@]4(C)[C@H]3CC[C@]12C` [FINASTERIDE], the “GGT Increase - Activity Score” value is given as “Inactive”, the “GGT Increase - Index Value” is given as 1 and the “GGT Increase - Number of Reports” value is listed as “>= 4”.
